Reference: patent US20250368649A1, “TETRAHYDROPYRIDOPYRIMIDINE PAN-KRAS INHIBITORS” (Mirati Therapeutics, Inc., priority 2022, published 2025)

How the values were obtained:
HCT116 cells = assay: Inhibition of KRas-mediated phosphorylation of ERK (Cisbio HTRF pERK), HCT116 cells; type: cell-based; conditions: Homo sapiens; for inhibition at 0.1 µM: HCT-116, single point at 100 nM, 3 hrs compound incubation; for IC50: HCT-116, 3 h, 3 hr compound incubation, Cisbio pERK HTRF
KRas G13D = KRas G13D (Homo sapiens, UniProt P01116, G13D); type: binding; conditions: single point, 10 nM compound, read-out: Binding to KRas (% inhibition at 10 nM) G13D
MKN1 cells = assay: Inhibition of KRas-mediated phosphorylation of ERK (Cisbio HTRF pERK), MKN1 cells; type: cell-based; conditions: Homo sapiens, MKN-1, 3 hour compound incubation, Cisbio pERK HTRF
Summary of the method: (§1)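 Cells were seeded on day 1 at 6,000 per well in RPMI containing 10% FBS before compound treatment and phospho-ERK detection.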

KRas Q61H = KRas Q61H (Homo sapiens, UniProt P01116, Q61H); assay: KRas binding assay (TR-FRET displacement), KRas Q61H; conditions: single point, 10 nM compound
KRas WT = KRas WT (Homo sapiens, UniProt P01116); assay: KRas binding assay (TR-FRET displacement), KRas WT; conditions: single point, 10 nM compound
ASPC1 cells = assay: Inhibition of KRas-mediated phosphorylation of ERK (Cisbio HTRF pERK), ASPC1 cells; type: cell-based; conditions: Homo sapiens, AsPC-1 cells; for IC50: ASPC1, 3 h, 3 hr compound incubation, Cisbio pERK HTRF
KRas G12A = KRas G12A (Homo sapiens, UniProt P01116, G12A); type: binding; conditions: single point, 10 nM compound, read-out: Binding to KRas (% inhibition at 10 nM) G12A
H727 cells = assay: Inhibition of KRas-mediated phosphorylation of ERK (Cisbio HTRF pERK), H727 cells; type: cell-based; conditions: Homo sapiens; for IC50: NCI-H727, 3 h, 3 hr compound incubation, Cisbio pERK HTRF
H460 cells = assay: Inhibition of KRas-mediated phosphorylation of ERK (Cisbio HTRF pERK), H460 cells; type: cell-based; conditions: Homo sapiens; for inhibition at 0.1 µM: NCI-H460, single point at 100 nM, 3 hrs compound incubation; for IC50: NCI-H460, 3 h, 3 hr compound incubation, Cisbio pERK HTRF
A549 cells = assay: Inhibition of KRas-mediated phosphorylation of ERK (Cisbio HTRF pERK), A549 cells; type: cell-based; conditions: Homo sapiens; for inhibition at 0.1 µM: single point at 100 nM, 3 hrs compound incubation; for IC50: A549, 3 h, 3 hr compound incubation, Cisbio pERK HTRF
KRas G12R = KRas G12R (Homo sapiens, UniProt P01116, G12R); assay: biochemical; conditions: Binding to KRas (IC50 nM) G12R, TR-FRET displacement, KRas G12R
KRas G12D = KRas G12D (Homo sapiens, UniProt P01116, G12D); assay: biochemical; conditions: Binding to KRas (IC50 nM) G12D, TR-FRET displacement, KRas G12D
KRas G12V = KRas G12V (Homo sapiens, UniProt P01116, G12V); assay: biochemical; conditions: Binding to KRas (IC50 nM) G12V, TR-FRET displacement, KRas G12V
PSN1 cells = assay: Inhibition of KRas-mediated phosphorylation of ERK (Cisbio HTRF pERK), PSN1 cells; type: cell-based; conditions: Homo sapiens, PSN1, 3 h, 3 hour compound incubation, Cisbio pERK HTRF
Summary of the method: as §1

KRas G12C = KRas G12C (Homo sapiens, UniProt P01116, G12C); type: binding; conditions: single point, 10 nM compound, read-out: Binding to KRas (% inhibition at 10 nM) G12C
KRas G12S = KRas G12S (Homo sapiens, UniProt P01116, G12S); type: binding; conditions: single point, 10 nM compound, read-out: Binding to KRas (% inhibition at 10 nM) G12S
H358 cells = assay: Inhibition of KRas-mediated phosphorylation of ERK (Cisbio HTRF pERK), H358 cells; type: cell-based; conditions: Homo sapiens; for inhibition at 0.1 µM: NCI-H358, single point at 100 nM, 3 hrs compound incubation; for IC50: NCI-H358, 3 h, 3 hr compound incubation, Cisbio pERK HTRF

Sequence of KRas G13D (P01116 1-169 isoform P01116-2 G13D): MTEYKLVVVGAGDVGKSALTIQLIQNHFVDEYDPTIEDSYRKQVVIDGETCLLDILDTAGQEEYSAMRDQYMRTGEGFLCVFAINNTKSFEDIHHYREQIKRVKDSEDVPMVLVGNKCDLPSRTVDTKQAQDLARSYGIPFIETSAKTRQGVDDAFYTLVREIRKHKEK
Sequence of KRas G12C (P01116 1-169 isoform P01116-2 G12C): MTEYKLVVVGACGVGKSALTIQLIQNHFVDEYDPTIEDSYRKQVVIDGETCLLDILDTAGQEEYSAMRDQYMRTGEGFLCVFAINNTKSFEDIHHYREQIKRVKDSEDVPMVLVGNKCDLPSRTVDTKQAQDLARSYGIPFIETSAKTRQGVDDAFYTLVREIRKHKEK
Sequence of KRas G12D (P01116 1-169 isoform P01116-2 G12D): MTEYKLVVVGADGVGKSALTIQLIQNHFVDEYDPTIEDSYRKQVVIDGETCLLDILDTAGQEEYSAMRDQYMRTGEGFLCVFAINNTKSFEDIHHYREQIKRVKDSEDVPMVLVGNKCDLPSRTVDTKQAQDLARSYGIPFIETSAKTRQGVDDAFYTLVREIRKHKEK
Sequence of KRas G12A (P01116 1-169 isoform P01116-2 G12A): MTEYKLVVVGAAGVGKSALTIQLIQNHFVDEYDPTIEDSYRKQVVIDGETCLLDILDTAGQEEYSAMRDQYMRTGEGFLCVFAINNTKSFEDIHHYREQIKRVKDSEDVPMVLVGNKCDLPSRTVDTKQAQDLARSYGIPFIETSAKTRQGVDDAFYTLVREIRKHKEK
Sequence of KRas G12R (P01116 1-169 isoform P01116-2 G12R): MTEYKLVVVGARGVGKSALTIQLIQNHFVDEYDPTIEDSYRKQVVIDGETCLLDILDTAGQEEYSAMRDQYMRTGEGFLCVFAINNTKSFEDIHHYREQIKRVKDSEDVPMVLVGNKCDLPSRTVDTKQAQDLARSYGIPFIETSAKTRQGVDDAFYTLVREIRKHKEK
Sequence of KRas Q61H (P01116 1-169 isoform P01116-2 Q61H): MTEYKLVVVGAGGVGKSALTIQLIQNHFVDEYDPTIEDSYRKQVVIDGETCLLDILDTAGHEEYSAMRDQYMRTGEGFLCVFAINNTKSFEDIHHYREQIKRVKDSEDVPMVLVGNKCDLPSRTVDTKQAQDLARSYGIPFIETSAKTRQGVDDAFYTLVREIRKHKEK
Sequence of KRas G12V (P01116 1-169 isoform P01116-2 G12V): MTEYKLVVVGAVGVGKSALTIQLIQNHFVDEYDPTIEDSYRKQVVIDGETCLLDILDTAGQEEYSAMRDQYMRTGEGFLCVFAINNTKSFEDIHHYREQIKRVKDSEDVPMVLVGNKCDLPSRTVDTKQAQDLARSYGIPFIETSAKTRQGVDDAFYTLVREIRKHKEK
Sequence of KRas WT (P01116 1-169 isoform P01116-2): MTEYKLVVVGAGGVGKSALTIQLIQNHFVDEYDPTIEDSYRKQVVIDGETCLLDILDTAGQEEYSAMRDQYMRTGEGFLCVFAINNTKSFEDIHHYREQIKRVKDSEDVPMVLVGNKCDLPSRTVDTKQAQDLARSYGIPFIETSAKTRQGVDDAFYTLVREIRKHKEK
Sequence of KRas G12S (P01116 1-169 isoform P01116-2 G12S): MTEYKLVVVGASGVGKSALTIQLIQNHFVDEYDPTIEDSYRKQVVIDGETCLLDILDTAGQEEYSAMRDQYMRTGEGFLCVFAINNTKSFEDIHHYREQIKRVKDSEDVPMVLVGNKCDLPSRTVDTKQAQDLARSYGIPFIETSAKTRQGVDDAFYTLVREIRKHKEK

| inhibition at 0.01 µM (KRas G13D) [%] | IC50 (MKN1 cells) [nM] | inhibition at 0.01 µM (KRas Q61H) [%] | inhibition at 0.01 µM (KRas WT) [%] | IC50 (ASPC1 cells) [nM] | inhibition at 0.01 µM (KRas G12A) [%] | IC50 (H727 cells) [nM] | IC50 (KRas G12R) [nM] | IC50 (KRas G12D) [nM] | IC50 (KRas G12V) [nM] | IC50 (PSN1 cells) [nM] | inhibition at 0.01 µM (KRas G12C) [%] | inhibition at 0.01 µM (KRas G12S) [%] | IC50 (HCT116 cells) [nM] | IC50 (H460 cells) [nM] | IC50 (A549 cells) [nM] | SMILES | inhibition at 0.1 µM (HCT116 cells) [%] | inhibition at 0.1 µM (H460 cells) [%] | inhibition at 0.1 µM (A549 cells) [%] | inhibition at 0.1 µM (H358 cells) [%] | further results |
| --- | --- | --- | --- | --- | --- | --- | --- | --- | --- | --- | --- | --- | --- | --- | --- | --- | --- | --- | --- | --- | --- |
| 90 | 30.5 | 89 | 88 | 3 | 88 | 21 | < 2 | < 2 | < 2 | > 10000 | 95 | 96 | 157 | 64 | 22 | CCc1c(F)ccc2cc(O)cc(N3CCc4c(nc(OC[C@@]56CCCN5C[C@H](F)C6)nc4N4CCCn5nnc(Br)c5C4)C3)c12 [Example 284, 4-(4-(3-bromo-7,8-dihydro-4H-[1,2,3]triazolo[1,5-a][1,4]diazepin-5(6H)-yl)-2-(((2R,7aS)-2-fluorohexahydro-1H-pyrrolizin-7a-yl)methoxy)-5,6-dihydropyrido[3,4-d]pyrimidin-7(8H)-yl)-5-ethyl-6-fluoronaphthalen-2-ol] | 27 | 53 | 66 | 89 | IC50 (H358 cells): 10 nM |
| 98 | 2 | 100 | 99 | 2 | 98 | 5 | < 2 | < 2 | < 2 | 2230 | 100 | 99 | 40 | 17 | 8 | CCc1c(F)ccc2cc(O)cc(N3CCc4c(nc(OC[C@@]56CCCN5C[C@H](F)C6)nc4N4CCCn5nc(C(=O)N(C)C6CC6)c(C)c5C4)C3)c12 [Example 292, N-cyclopropyl-5-(7-(8-ethyl-7-fluoro-3-hydroxynaphthalen-1-yl)-2-(((2R,7aS)-2-fluorohexahydro-1H-pyrrolizin-7a-yl)methoxy)-5,6,7,8-tetrahydropyrido[3,4-d]pyrimidin-4-yl)-N,3-dimethyl-5,6,7,8-tetrahydro-4H-pyrazolo[1,5-a][1,4]diazepine-2-carboxamide] | 75 | 93 | 98 | 100 | IC50 (H358 cells): 1 nM |
| 91 | 15.9 | 92 | 92 | 3 | 95 | 8 | < 2 | < 2 | < 2 | 6010 | 99 | 99 | 224 | 48 | 18 | CCc1c(F)ccc2cc(O)cc(N3CCc4c(nc(OC[C@@]56CCCN5C[C@H](F)C6)nc4N4CCCn5nc(C(=O)NC6CC6)c(C)c5C4)C3)c12 [Example 293, N-cyclopropyl-5-(7-(8-ethyl-7-fluoro-3-hydroxynaphthalen-1-yl)-2-(((2R,7aS)-2-fluorohexahydro-1H-pyrrolizin-7a-yl)methoxy)-5,6,7,8-tetrahydropyrido[3,4-d]pyrimidin-4-yl)-3-methyl-5,6,7,8-tetrahydro-4H-pyrazolo[1,5-a][1,4]diazepine-2-carboxamide] | 40 | 66 | 86 | 95 | IC50 (H358 cells): 3 nM |
| 98 | 4 | 98 | 98 | 4 | 98 | 10 | < 2 | < 2 | < 2 | 3800 | 100 | 100 | 41 | 15 | 7 | CCc1c(F)ccc2cc(O)cc(N3CCc4c(nc(OC[C@@]56CCCN5C[C@H](F)C6)nc4N4CCCn5nc(C(=O)N(C)C)c(C6CC6)c5C4)C3)c12 [Example 294, 3-cyclopropyl-5-(7-(8-ethyl-7-fluoro-3-hydroxynaphthalen-1-yl)-2-(((2R,7aS)-2-fluorohexahydro-1H-pyrrolizin-7a-yl)methoxy)-5,6,7,8-tetrahydropyrido[3,4-d]pyrimidin-4-yl)-N,N-dimethyl-5,6,7,8-tetrahydro-4H-pyrazolo[1,5-a][1,4]diazepine-2-carboxamide] | 72 | 90 | 82 | 100 | IC50 (H358 cells): 2 nM |

| SMILES | inhibition at 0.01 µM (KRas G13D) [%] | IC50 (MKN1 cells) [nM] | inhibition at 0.01 µM (KRas Q61H) [%] | inhibition at 0.01 µM (KRas WT) [%] | IC50 (ASPC1 cells) [nM] | inhibition at 0.01 µM (KRas G12A) [%] | IC50 (H727 cells) [nM] | IC50 (KRas G12R) [nM] | IC50 (KRas G12D) [nM] | IC50 (KRas G12V) [nM] | IC50 (PSN1 cells) [nM] | inhibition at 0.01 µM (KRas G12C) [%] | inhibition at 0.01 µM (KRas G12S) [%] | IC50 (HCT116 cells) [nM] | IC50 (H460 cells) [nM] | IC50 (A549 cells) [nM] | inhibition at 0.1 µM (HCT116 cells) [%] | inhibition at 0.1 µM (H460 cells) [%] | inhibition at 0.1 µM (A549 cells) [%] | inhibition at 0.1 µM (H358 cells) [%] | further results |
| --- | --- | --- | --- | --- | --- | --- | --- | --- | --- | --- | --- | --- | --- | --- | --- | --- | --- | --- | --- | --- | --- |
| CCc1c(F)ccc2cc(O)cc(N3CCc4c(nc(OC[C@@]56CCCN5C[C@H](F)C6)nc4N4CCCn5nc(C(=O)N6CC7CC(C6)N7)cc5C4)C3)c12 [Example 283, 3,6-diazabicyclo[3.1.1]heptan-3-yl(5-(7-(8-ethyl-7-fluoro-3-hydroxynaphthalen-1-yl)-2-(((2R,7aS)-2-fluorohexahydro-1H-pyrrolizin-7a-yl)methoxy)-5,6,7,8-tetrahydropyrido[3,4-d]pyrimidin-4-yl)-5 6,7,8-tetrahydro-4Hi-pyrazolo[1,5-a][1,4]diazepin-2-yl)methanone] | 98 | 155 | 97 | 95 | 22 | 97 | 106 | < 2 | < 2 | < 2 | > 10000 | 99 | 99 | – | – | – | -8 | 18 | 40 | 48 | – |
| CCc1c(F)ccc2cc(O)cc(N3CCc4c(nc(OC[C@@]56CCCN5C[C@H](F)C6)nc4N4CCCn5nc(C(=O)N6C7CCCC6C7)cc5C4)C3)c12 [Example 286, 6-azabicyclo[3.1.1]heptan-6-yl(5-(7-(8-ethyl-7-fluoro-3-hydroxynaphthalen-1-yl)-2-(((2R,7aS)-2-fluorohexahydro-1H-pyrrolizin-7a-yl)methoxy)-5,6,7,8-tetrahydropyrido[3,4-d]pyrimidin-4-yl)-5,6,7,8-tetrahydro-4H-pyrazolo[1,5-a][1,4]diazepin-2-yl)methanone] | 94 | 11.9 | 95 | 94 | 4 | 94 | 8 | < 2 | < 2 | < 2 | 3270 | 98 | 97 | 211 | 49 | 29 | 46 | 66 | 87 | 97 | inhibition at 0.1 µM (ASPC1 cells; ASPC1, single point at 100 nM, 3 hrs compound incubation): 96%; inhibition at 0.1 µM (H727 cells; NCI-H727, single point at 100 nM, 3 hrs compound incubation): 80%; IC50 (H358 cells): 6 nM |
